Data reported in patent US8188148B2, “Substituted 1,3-diphenylpropane derivatives, preparations and uses thereof” (Genfit, priority 2006, dated 2012).

Key:
[1] = tested on: PPARs target genes (PDK4, ApoCIII); assay: Hepatic gene expression by quantitative RT-PCR in E2/E2 mouse; assay type: in vivo; settings: E2/E2 mouse, 5, 10, and 50 mpk, 8 days, normalized to 36B4
Description: The effectiveness of the compounds according to the invention is also evaluated by measuring, in the hepatic tissue, the expression of genes involved in lipid and/or glucid metabolism and in energy dissipation. Each level of gene expression is normalized regarding the expression level of the reference gene 36B4. The induction factor, i.e. the ratio between the relative signal (induced by the compound according to the invention) and the average of the relative values obtained with the control group, is then calculated. The higher the induction factor is, the more the compound promotes hepatic gene expression. […]
The agonist properties of PPARα previously measured in vitro should, in the liver, lead to an over-expression of the target genes directly under the control of the PPARα. […]
Gene expression analysis by quantitative RT-PCR Total RNA is extracted from liver fragments by using a NucleoSpin® 96 RNA kit (Macherey Nagel, Hoerdt, France) according to the manufacturer's instructions.
1 μg of total RNA (quantified by using the Ribogreen RNA quantification kit (Molecular Probes)) is then reverse-transcribed into complementary DNA by means of a 1 hour reaction at 37° C. in a total volume of 20 μl containing a 1× buffer (Sigma), 1.5 mM of DTT, 0.18 mM of dNTPs (Promega), 200 ng of pdN6 (Amersham), 30 U of RNase inhibitor (Sigma), and 1 μl of MMLV-RT (Sigma). […]

C57BI6 mouse = assay: In vivo evaluation on C57BI6 mouse: body weight and plasma lipids; settings: C57BI6 mouse, 3, 10, and 30 mpk per os, 14 days, vs control
Description: The effect of the compounds according to the invention is evaluated in vivo on the C57BI6 mouse by measuring the body weight evolution, the plasma HDL cholesterol and triglyceride levels, after 14 days of a per os treatment with the compounds according to the invention.
Female C57BI6 mice were kept on a 12 hour/12 hour light/dark cycle at a constant temperature of 20±3° C. After a one week acclimatization period, the mice were weighed and divided into groups of 6 animals selected such as the distribution of body weight and of plasma lipid rate, determined before the experiment, was uniform. The tested compounds were suspended in carboxymethylcellulose (Sigma C4888) and administered to the animals by gastric gavage, once a day for 14 days at the chosen doses. The animals had free access to food and water (standard diet). Taking of food and weight gain are recorded throughout the experiment. At the end of the experiment, after a 4 hour fast, the animals were anesthetized and a blood sample was taken on anticoagulant (EDTA). Then the mice were weighed and euthanized. The plasma was separated by centrifugation at 3000 rotations/minute for 20 minutes. The samples were kept at +4° C. Hepatic tissue samples were removed, frozen in liquid nitrogen, and then kept at −80° C. for later analyses.
Low-density lipoproteins (VLDL and LDL) are precipitated by Phosphotungstate. The precipitate is eliminated by centrifugation. HDL-cholesterol present in the supernatant is measured by enzymatic assays (bioMérieux-Lyon-France) in accordance with the provider's recommendations.
Plasma triglyceride concentrations were measured by enzymatic assays (bioMérieux-Lyon-France) according to the provider's recommendations.

With Cc1cc(CCC(=O)c2ccc(OC(F)(F)F)cc2)cc(C)c1OC(C)(C)C(=O)O [Compound 1, 2-[2,6-dimethyl-4-[3-[4-(trifluoromethyloxy)phenyl]-3-oxo-propyl]phenoxy]-2-methyl-propanoic acid] the “hepatic expression of the gene coding for ApoCIII” value [1] was “reduction”, the “hepatic expression of the gene coding for PDK4” value [1] was “significant increase” and the body weight gain (C57BI6 mouse) was “weight loss”. The “plasma HDL-cholesterol” value (C57BI6 mouse) was “very significantly increased” and the plasma triglycerides (C57BI6 mouse) was “very significantly diminished”.
